In test [1] the target is T1, PRMT1 (Homo sapiens, UniProt Q99873). Kind of test: PRMT1 Enzymatic Assay (LANCE TR-FRET, methylation of histone H4 at Arg3). It counts as biochemical. Further details: purchased SignalChem P365-380G. The following applies: PRMT1 1.5 nM, SAM 1 μM, biotinylated histone H4 (1-21) 25 nM; read-out: PRMT-1 IC50. An outline of the steps:
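PRMT1 (1.5 nM) preincubated 15 min with compound at room temperature, then reacted 1 h with 1 μM SAM and 25 nM biotinylated histone H4 (1-21) in 50 mM Hepes pH 8, 1 mM TCEP, 0.003% Tween-20. H4R3me detected by TR-FRET (665/620 nm ratio); IC50 from four-parameter logistic fit.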

Test [2] addresses T1, PRMT1. Kind of test: PRMT1 RKO Cellular Target Engagement Assay (In-Cell Western, asymmetric di-methyl arginine). To be noted: RKO cells, 48 hr compound incubation; read-out: RKO IC50 (PRMT-1 Target Engagement). Type of test: cell-based. The method in brief: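 RKO cells (1,000/well) received 1:3 serially diluted compound for 48 h at 37 °C, then were fixed, permeabilised and immunostained for asymmetric di-methyl arginine by In-Cell Western. The 800 nm antibody signal was normalised to CellTag 700 nm; IC50 from four-parameter logistic fit.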

The record followed here is patent publication US20230416261A1, “ETHANEDIAMINE-HETEROCYCLE DERIVATIVES AS INHIBITORS OF PROTEIN ARGININE METHYLTRANSFERASES” (Board of Regents, The University of Texas System, priority 2021, published 2023).

As a reminder, the IC50 is the concentration needed to halve the response being measured.

T1 sequence (Q99873 whole entry): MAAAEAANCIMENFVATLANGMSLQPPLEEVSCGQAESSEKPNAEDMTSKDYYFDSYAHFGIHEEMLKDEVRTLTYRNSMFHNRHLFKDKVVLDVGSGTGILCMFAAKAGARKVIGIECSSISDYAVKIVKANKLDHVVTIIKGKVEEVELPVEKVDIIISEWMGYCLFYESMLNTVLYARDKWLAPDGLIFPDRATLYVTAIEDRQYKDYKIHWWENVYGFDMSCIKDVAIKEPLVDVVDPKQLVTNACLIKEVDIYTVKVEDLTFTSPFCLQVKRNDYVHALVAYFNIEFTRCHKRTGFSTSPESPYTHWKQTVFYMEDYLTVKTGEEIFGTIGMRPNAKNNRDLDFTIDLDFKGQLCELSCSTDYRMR

For `CNCCN(C)Cc1nn2c(c1C1CCC(COC)(COC)CC1)CN(C(=O)C1CCC1)CC2` [Example 1, (3-(4,4-Bis(methoxymethyl)cyclohexyl)-2-((methyl(2-(methylamino)ethyl)amino)methyl)-6,7-dihydropyrazolo[1,5-a]pyrazin-5(4H)-yl)(cyclobutyl)methanone], the IC50 on PRMT1 [1] is 0.035 µM; at PRMT1 [2] it was 0.138 µM.

For `COCC1(COC)CCC(c2c(CN(C)CCN)nn3c2CN(C(=O)C(C)(C)C)CC3)CC1` [Example 2, 1-(2-(((2-aminoethyl)(methyl)amino)methyl)-3-(4,4-bis(methoxymethyl)cyclohexyl)-6,7-dihydropyrazolo[1,5-a]pyrazin-5(4H)-yl)-2,2-dimethylpropan-1-one], the IC50 at PRMT1 [1] was 0.016 µM; on PRMT1 [2], 0.311 µM.
